Experimental data reported in patent publication US9974761B2, “Medications for deposition on biological surfaces” (The Procter & Gamble Company, priority 2014, dated 2018).
Values belong to the compound of their own block, whether it stands above or below them.

Experiments:
[1] = biological target: T1, human TRPA1 (Homo sapiens, UniProt O75762, K186N/R3C/R58T); assay: TRPA1 Protocol-FLIPR Assay (intracellular Ca2+); format: cell-based
T1 construct: expressed in transfected cells
Protocol: To determine whether TRPA1 is activated, the intracellular calcium ion (Ca^2+) level from transfected cells with the TRPA1 receptor sequence (SEQ ID NO: 2) was measured. HEK-293 cells stably transfected with human TRPA1 were grown in 15 ml growth medium (high glucose DMEM (Dulbecco's Modification of Eagle's Medium) supplemented with 10% FBS (fetal bovine serum), 100 μg/ml penicillin/streptomycin, 100 μg/ml G418) in a 75cm^2 flask for 3 days at 37° C. in a mammalian cell culture incubator set at 5% CO2. Cells were detached with addition of 10 ml of PBS (phosphate buffered saline) by hand shaking gently and transferred to a 50 ml tube and centrifuged at 850 rpm for 3 minutes to remove PBS. After centrifugation, a pellet of cells was formed in the bottom of the tube separating them from the supernatant solution. The supernatant was discarded and the cell pellet suspended in 1 ml of fresh growth medium to which 5 μl (12.5 μg) of Fluo-4 AM (Molecular Probes, Inc.) calcium indicator was added and incubated for 30 minutes with gentle shaking. At the end of the 30 minutes, 45 ml of assay buffer (1× HBSS (Hank's Balanced Salt Solution), 20 mM HEPES (4-(2-Hydroxyethyl)-1-piperazineethanesulfonic acid)) was added to wash the cells and the resulting combination was then centrifuged at 850 rpm for 3 minutes to remove excess buffer and Fluo-4 AM calcium indicator.
The pelleted cells were re-suspended in 10 ml assay buffer and 90 μll aliquots (˜50,000 cells) per well delivered to a 96-well assay was placed into a fluorometric imaging plate reader (FLIPR TETRA from Molecular Devices) and basal fluorescence recorded (excitation wave length 488 nm and emission wave length 510 nm). Then 20 μl of the test compound being tested was added and fluorescence recorded (TABLES 2 and 3).
To determine if a compound was an agonist the direct effect of a test compound was determined. If any increase in fluorescence over background was noted, then the compound was considered an agonist. The agonist activity was expressed relative to that observed with a benchmark agonist such as 50 μm allyl isothiocyanate for TRPAL

[2] = biological target: T2, human TRPV1 (Homo sapiens, UniProt Q8NER1, M315I/T336M); assay: TRPV1 Protocol-FLIPR Assay (intracellular Ca2+); format: cell-based
T2 construct: expressed in transfected cells
T2 sequence (Q8NER1 whole entry M315I/T336M): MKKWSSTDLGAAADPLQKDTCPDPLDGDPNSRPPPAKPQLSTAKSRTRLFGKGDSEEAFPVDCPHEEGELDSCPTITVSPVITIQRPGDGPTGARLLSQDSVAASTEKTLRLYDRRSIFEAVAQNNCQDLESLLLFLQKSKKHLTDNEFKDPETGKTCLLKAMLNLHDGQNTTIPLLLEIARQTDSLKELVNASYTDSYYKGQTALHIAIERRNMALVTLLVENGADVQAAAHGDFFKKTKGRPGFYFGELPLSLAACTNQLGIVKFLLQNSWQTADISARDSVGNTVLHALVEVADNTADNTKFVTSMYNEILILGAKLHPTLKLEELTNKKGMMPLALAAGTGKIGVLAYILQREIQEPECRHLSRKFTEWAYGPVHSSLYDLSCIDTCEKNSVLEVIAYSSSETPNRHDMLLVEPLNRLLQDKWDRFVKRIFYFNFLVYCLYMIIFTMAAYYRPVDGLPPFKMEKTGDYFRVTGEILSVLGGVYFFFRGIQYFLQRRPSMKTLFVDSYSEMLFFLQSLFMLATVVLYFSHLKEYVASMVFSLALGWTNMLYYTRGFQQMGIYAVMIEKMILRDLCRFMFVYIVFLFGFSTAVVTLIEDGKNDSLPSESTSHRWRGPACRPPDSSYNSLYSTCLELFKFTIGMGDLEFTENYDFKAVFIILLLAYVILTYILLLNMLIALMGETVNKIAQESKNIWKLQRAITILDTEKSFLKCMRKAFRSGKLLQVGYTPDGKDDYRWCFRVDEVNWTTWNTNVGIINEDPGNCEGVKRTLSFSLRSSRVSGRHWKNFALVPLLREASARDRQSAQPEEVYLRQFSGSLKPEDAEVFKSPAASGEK
Protocol: To determine whether TRPV1 was activated, the intracellular calcium ion (Ca^+2) levels from cells transfected with the TRPV1 receptor sequence (SEQ ID NO: 1) were measured. […] Cells were detached with addition of 10 ml of PBS (phosphate buffered saline) by gentle hand shaking. Cells were transferred to a 50 ml tube and centrifuged at 850 rpm for 3 minutes to remove PBS. After centrifugation, a pellet of cells formed in the bottom of the tube separating them from the supernatant solution. The supernatant was discarded and the cell pellet suspended in 1 ml of fresh growth medium to which 5 μl (12.5 μg) of Fluo-4 AM (Molecular Probes, Inc., Eugene, Oreg.) calcium indicator was added and incubated for 30 minutes with gentle shaking. […] The pelleted cells were re-suspended in 10 ml assay buffer and 90 μl aliquots (˜50,000 cells) per well delivered to a 96-well assay plate was placed into a fluorometric imaging plate reader (FLIPR TETRA from Molecular Devices) and basal fluorescence recorded (excitation wave length 488 nm and emission wave length 510 nm). Then 20 μl of a test compound-being tested as a TRPV1 receptor agonist was added and fluorescence recorded. The observed value with compound pretreated cells was compared with buffer control; the difference between the two indicating a measure of effect of the test compound on the agonist (TABLES 2 and 3). If any increase in fluorescence over background was noted, then the compound was considered an agonist.

[3] = concentration where the cooling effect could be clearly recognized; Emberger and Hopp 1987; cited from earlier work
[4] = biological target: T3, human TRPM8 (UniProt Q8R4D5); assay: TRPM8 Protocol-FLIPR Assay (intracellular Ca2+); format: cell-based
T3 construct: Receptor Activity TRPM8; Receptor Activity TRPM8; other: test compound at 0.001%; relative to WS5 control (30 microMolar); HEK 293 cells; other: test compound at 0.004%; other: test compound at 5.2E−5%; relative to WS5 control
Protocol: (§1) To determine whether TRPM8 is activated, the intracellular calcium ion (Ca^2+) level was measured from transfected cells with the TRPM8 receptor sequence (SEQ ID NO: 3). HEK-293 (human embryonic kidney) cells stably transfected with human TRPM8 were grown in 15 ml growth medium (high glucose DMEM (Dulbecco's Modification of Eagle's Medium) supplemented with 10% FBS (fetal bovine serum), 100 ug/ml penicillin/streptomycin, 5 μg/ml blasticindin, and 100 μg/ml zeocin) in a 75 cm^2 flask for 3 days at 37° C. in a mammalian cell culture incubator set at 5% CO2 Cells were detached with addition of 2 ml of trypsin-EDTA buffer (GIBCO® 25200, Invitrogen, Grand Island, N.Y.) for about 2-3 min. Trypsin was inactivated by addition of 8 ml growth medium. Cells were transferred to a 50 ml tube and centrifuged at 850 rpm for 3 minutes to remove medium. After centrifugation, a pellet of cells was formed in the bottom of the tube separating them from the supernatant solution. The supernatant was discarded and the cell pellet was suspended in 1 ml of fresh growth medium to which 5 μl (12.5 μg) of Fluo-4 AM (Molecular Probes, Inc., Eugene, Oreg.) calcium indicator was added and incubated for 30 min with gentle shaking. Fluo-4 AM is a fluorescent dye used for quantifying cellular Ca^2+ concentrations in the 100 nM to 1 microM range. At the end of 30 minutes, 45 ml of assay buffer (1× HBSS (Hank's Balanced Salt Solution), 20 mM HEPES (4-(2-Hydroxyethyl)-1-piperazineethanesulfonic acid)) was added to wash cells and the resulting mixture was then centrifuged at 850 rpm for 3 minutes to remove excess buffer and Fluo-4 AM calcium indicator.
(§2) The pelleted cells were re-suspended in 10 ml assay buffer and 90 μl aliquots (˜50,000 cells) per well delivered to a 96-well assay plate containing 10 μl of test compounds (1 mM in assay buffer, […]) or buffer control and incubated at room temperature for 30 minutes. After 30 minutes, a plate was placed into a fluorometric imaging plate reader (FLIPR384 from Molecular Devices, Sunnyvale, Calif.) and basal fluorescence recorded (excitation wave length 488 nm and emission wave length 510 nm). Then 20 μl of […] of TRPM8 agonist WS5 coolant in the assay buffer was added and fluorescence recorded. For determining the direct effect of test compounds on TRPM8, fluorescence was measured immediately after addition of each compound (TABLES 2 and 3). Additional discussion of the FLIPR method can be found in Smart et al., Characterization using FLIPR of human vanilloid VR1 receptor pharmacology, European Journal of Pharmacology 417, 51-58 (2001) and Liu et al., Development and validation of a platelet calcium flux assay using a fluorescent imaging plate reader, Analytical Biochemistry 357, 216-224 (2006).
(§3) TRPM8 activation was determined by measuring intracellular calcium ion (Ca^2+) level from transfected cells with the TRPM8 receptor gene, as described in EXAMPLE 1, the results of which are shown in TABLES 4 and 5.

[5] = Sensation reported by panelists; format: in vivo; details: perceived sensation, in words
[6] = test system: human TRPM8; assay: TRPM8 Protocol-FLIPR Assay (intracellular Ca2+); format: cell-based; details: dose 30 uM
Protocol: as §1, §2, §3

[7] = test compound at 5.2E−5%, relative to Allyl Isothiocyanate control (50 microMolar), HEK 293 cells
[8] = test compound at 5.2E−5%, relative to Capsaicin control (350 nanoMolar), HEK 293 cells
[9] = test compound at 0.02%, relative to Allyl Isothiocyanate control (50 microMolar), HEK 293 cells
[10] = test compound at 0.02%, relative to Capsaicin control (350 nanoMolar), HEK 293 cells

T1 sequence (O75762 whole entry R3C/R58T/K186N): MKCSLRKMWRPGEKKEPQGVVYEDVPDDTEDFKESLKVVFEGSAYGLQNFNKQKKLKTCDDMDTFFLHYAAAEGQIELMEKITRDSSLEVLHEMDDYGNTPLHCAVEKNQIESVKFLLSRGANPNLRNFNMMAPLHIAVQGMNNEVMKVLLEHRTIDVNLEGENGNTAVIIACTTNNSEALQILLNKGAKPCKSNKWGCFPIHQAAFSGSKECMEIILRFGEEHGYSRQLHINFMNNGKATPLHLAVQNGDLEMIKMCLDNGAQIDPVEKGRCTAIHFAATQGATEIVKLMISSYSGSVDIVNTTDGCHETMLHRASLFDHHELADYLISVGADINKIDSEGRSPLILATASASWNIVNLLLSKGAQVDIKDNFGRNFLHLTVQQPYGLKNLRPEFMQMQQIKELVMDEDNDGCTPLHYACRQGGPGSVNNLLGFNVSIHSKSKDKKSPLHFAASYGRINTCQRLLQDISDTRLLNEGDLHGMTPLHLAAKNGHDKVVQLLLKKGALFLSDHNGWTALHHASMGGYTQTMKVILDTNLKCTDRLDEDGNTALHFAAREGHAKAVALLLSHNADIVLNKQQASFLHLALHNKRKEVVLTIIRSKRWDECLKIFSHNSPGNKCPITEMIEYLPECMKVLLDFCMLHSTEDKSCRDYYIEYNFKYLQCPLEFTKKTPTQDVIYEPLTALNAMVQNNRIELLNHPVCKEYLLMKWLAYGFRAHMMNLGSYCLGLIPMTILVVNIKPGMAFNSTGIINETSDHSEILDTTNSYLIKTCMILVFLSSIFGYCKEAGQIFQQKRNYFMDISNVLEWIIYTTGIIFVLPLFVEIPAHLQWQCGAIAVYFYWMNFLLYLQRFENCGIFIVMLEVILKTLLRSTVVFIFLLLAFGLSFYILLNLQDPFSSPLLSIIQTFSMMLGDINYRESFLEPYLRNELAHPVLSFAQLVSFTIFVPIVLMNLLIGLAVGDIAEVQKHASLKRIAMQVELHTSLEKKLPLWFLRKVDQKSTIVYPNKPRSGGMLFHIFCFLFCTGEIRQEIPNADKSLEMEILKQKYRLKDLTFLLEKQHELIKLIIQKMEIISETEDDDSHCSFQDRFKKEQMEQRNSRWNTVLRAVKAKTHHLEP

Structure (SMILES): C=CCN=C=S [Allyl Isothiocyanate, reference compound]
Receptor Activity TRPA1 ([1]; control agonist at 50 microMolar (reference = 100%)): 100%

Structure (SMILES): COc1cc(CNC(=O)CCCC/C=C/C(C)C)ccc1O [Capsaicin, reference compound]
Receptor Activity TRPV1 ([2]; control agonist at 350 nanoMolar (reference = 100%)): 100%

Structure (SMILES): CC(C)[C@@H]1CC[C@@H](C)C[C@@H]1O [Compound 1-neomenthol, 1-neomenthol]
cooling threshold [3]: about 3,000 ppb

Structure (SMILES): CC(C)[C@@H]1CC[C@@H](C)C[C@H]1C(=O)NCC(NC(=O)[C@@H](C)N)c1ccccc1 (stereo partly drawn) [Compound 28, Cyclohexane-carboxamide, N-[2-[[(2R)-2-amino-1-oxopropyl]amino]-2-phenylethyl]-5-methyl-2-(1-methylethyl)-, (1R,2S,5R)-*]
mass efficiency relative to N-(4-cyanomethylphenyl)-p-menthanecarboxamide ([4]; at a single concentration, TRPM8 activity vs WS5): 100 ×
Receptor Activity TRPM8 ([4]; test compound at 5.2E−6%, relative to WS5 control (30 microMolar), HEK 293 cells): 130.42%
Receptor Activity TRPM8 ([4]; test compound at 5.2E−6%, relative to WS5 control (30 microMolar), HEK 293 cells, listed as compound 28): 130%
Receptor Activity TRPA1 [1, 7]: 242.50%
Receptor Activity TRPV1 [2, 8]: 104.50%
sensation (cooling, warming, burning) [5]: cooling sensations

Structure (SMILES): CC(C)[C@@H]1CC[C@@H](C)C[C@H]1O [L-menthol]
cooling threshold [3]: about 800 ppb

Structure (SMILES): CC(C)[C@@H]1CC[C@@H](C)C[C@@H]1O [d-neomenthol]
cooling threshold [3]: about 25,000 ppb

Further lines, with some results ahead:

Receptor Activity TRPM8 ([4]; test compound at 5.2E−5%, relative to WS5 control (30 microMolar), HEK 293 cells): 109.70%
Receptor Activity TRPA1 [1, 7]: 38.18%
Receptor Activity TRPV1 [2, 8]: 16.24%
Structure (SMILES): CC(C)[C@@H]1CC[C@@H](C)C[C@H]1C(=O)NCC(OCCN)c1ccccc1 (stereo partly drawn) [Compound 30, Cyclohexane-carboxamide, N-[2-(2-aminoethoxy)-2-phenylethyl]-5-methyl-2-(1-methylethyl)-, (1R,2S,5R)-*]
sensation (cooling, warming, burning) [5]: lack of sensation, cooling or warming

Receptor Activity TRPM8 ([4]; test compound at 0.001%, relative to WS5 control (30 microMolar), HEK 293 cells): 108.80%
Receptor Activity TRPM8 ([4]; test compound at 0.001%, relative to WS5 control (30 microMolar), HEK 293 cells, listed as N-(4-cyanomethylphenyl)-p-menthanecarboxamide): 109%
Receptor Activity TRPA1 ([1]; test compound at 0.001%, relative to Allyl Isothiocyanate control (50 microMolar), HEK 293 cells): 68.02%
Receptor Activity TRPV1 ([2]; test compound at 0.001%, relative to Capsaicin control (350 nanoMolar), HEK 293 cells): 0.01%
Structure (SMILES): CC(C)[C@@H]1CC[C@@H](C)C[C@H]1C(=O)Nc1ccc(CC#N)cc1 [Compound 180, Cyclohexane-carboxamide, N-[4-(cyanomethyl)phenyl]-5-methyl-2-(1-methylethyl)-, (1R,2S,5R)-, reference compound]

Receptor Activity TRPA1 [1, 9]: 198.79%
Receptor Activity TRPV1 [2, 10]: 92.07%
Structure (SMILES): CSc1ccc(NC(=O)[C@@H]2C[C@H](C)CC[C@H]2C(C)C)c(NCCN)c1 [Compound 773, Cyclohexane-carboxamide N-[2-[(2-aminoethyl)amino]-4-(methylthio)phenyl]-5-methyl-2-(1-methylethyl)-(1R,2S,5R)-*]
sensation (cooling, warming, burning) [5]: warming

Receptor Activity TRPA1 [1, 9]: 173.88%
Receptor Activity TRPV1 [2, 10]: 60.5%
Structure (SMILES): CC(C)[C@@H]1CC[C@@H](C)C[C@H]1C(=O)Nc1ccc2ccccc2c1OCCN [Compound 777, Cyclohexane-carboxamide, N-[1-(2-aminoethoxy)-2-naphthalenyl]-5-methyl-2-(1-methylethyl)-, (1R,2S,5R)-*]
sensation (cooling, warming, burning) [5]: burning
sensation (cooling, warming, burning) ([5]; listed as test compound 777): burning sensation

Receptor Activity TRPM8 ([4]; control agonist at 30 microMolar (reference = 100%)): 100%
TRPM8 Time Course Activity 50 sec % of WS5 ([4]; dose 30 uM, 50 sec): 100.0%
TRPM8 Time Course Activity 50 sec ([4]; dose 30 uM, fluorescence at 50 sec): 10059.7
Structure (SMILES): CCOC(=O)CNC(=O)C1CC(C)CCC1C(C)C (stereo not shown) [WS5, N-ethoxycarbonylmethyl-ρ-menthan-3-carboxamide, reference compound]
TRPM8 Time Course Activity 50 sec % of WS5 ([6]; 50 sec): 100.0%
TRPM8 Time Course Activity 3 min % of WS5 ([6]; 3 min): 100.0%
TRPM8 Time Course Activity 5 min % of WS5 ([6]; 5 min): 100.0%
TRPM8 Time Course Activity 10 min % of WS5 ([6]; 10 min): 100.0%
TRPM8 Time Course Activity 50 sec ([6]; fluorescence at 50 sec): 10059.7
TRPM8 Time Course Activity 3 min ([6]; fluorescence at 3 min): 9449.3
TRPM8 Time Course Activity 5 min ([6]; fluorescence at 5 min): 9468.0
TRPM8 Time Course Activity 10 min ([6]; fluorescence at 10 min): 9576.0
